Reference: patent US20260078130A1, “NAMPT MODULATORS, PREPARATIONS, AND USES THEREOF” (SIRONAX LTD., priority 2022, published 2026)

Tests used:
[1] = target: T1, human enzyme NAMPT (full length) (Homo sapiens, UniProt P43490); assay: NMN fluorescence biochemical assay (stimulation of NMN synthesis by NAMPT); conditions: for EC50: NMN synthesis by purified human NAMPT (100 nM), concentration giving half-maximal activation, read-out: Enzymatic EC50; for Enzymatic Emax: fold change of maximal activation compared to DMSO
T1 construct: human enzyme NAMPT (full length)
Summary of the method: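 Full-length human NAMPT (100 nM) was preincubated 15 min at 37 °C with compound in 50 mM Tris-HCl pH 7.5, 10 mM MgCl2, 2 mM DTT, then reacted 1 h at 37 °C with 50 μM NAM, 100 μM PRPP, 4 mM ATP (stated solution concentrations). NMN was derivatised with acetophenone/KOH then formic acid and read at Ex/Em 382/445 nm; EC50 and Emax (fold over DMSO) reported.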

[2] = system: endogenous NAMPT in U2OS cells; assay: Cellular NAD+ modulation assay (NAD/NADH-Glo, U2OS cells); type: cell-based; conditions: Homo sapiens, 24 hours incubation with compound; for maximal fold induction: read-out: Cellular Emax
Summary of the method: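 NAD/NADH-Glo luminescence quantified NAD+ after acid treatment (60 °C, 15 min) and neutralization of DTAB lysates. Beforehand, U2OS cells seeded 16 h earlier received compound concentration series for 24 h at 37 °C. Values given as half-maximal activation concentration (EC50) and maximal fold change versus DMSO (Emax).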

T1 sequence (P43490 whole entry): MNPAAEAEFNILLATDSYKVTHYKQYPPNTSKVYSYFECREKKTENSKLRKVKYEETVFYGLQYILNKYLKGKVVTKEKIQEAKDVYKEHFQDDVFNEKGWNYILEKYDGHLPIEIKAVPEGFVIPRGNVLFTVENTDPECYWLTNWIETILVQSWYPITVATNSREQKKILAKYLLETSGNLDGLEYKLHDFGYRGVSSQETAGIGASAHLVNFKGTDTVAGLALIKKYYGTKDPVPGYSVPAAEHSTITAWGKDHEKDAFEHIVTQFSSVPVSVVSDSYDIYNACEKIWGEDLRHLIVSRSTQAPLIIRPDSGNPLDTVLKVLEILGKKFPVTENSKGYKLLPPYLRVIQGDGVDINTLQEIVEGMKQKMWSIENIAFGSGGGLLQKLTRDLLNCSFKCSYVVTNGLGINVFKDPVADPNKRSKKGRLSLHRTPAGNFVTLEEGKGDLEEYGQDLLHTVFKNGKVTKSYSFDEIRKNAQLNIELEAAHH

SMILES	EC50 [1]	Enzymatic Emax [1]	EC50 [2]	maximal fold induction [2]
Cc1ccccc1CC1c2ccncc2C(=O)N1Cc1ccc2[nH]c(=O)oc2c1 (centres unmarked) [Compound 168, 6-((1-(2-methylbenzyl)-3-oxo-1,3-dihydro-2H-pyrrolo[3,4-c]pyridin-2-yl)methyl)benzo[d]oxazol-2(3H)-one]	500 to 5000 nM	A (A>3)	500 to 5000 nM	> 1.5
N#CCc1ccccc1CC1c2ccccc2C(=O)N1Cc1ccc2[nH]c(=O)oc2c1 (centres unmarked) [Compound 173, 2-(2-((3-oxo-2-((2-oxo-2,3-dihydrobenzo[d]oxazol-6-yl)methyl)isoindolin-1-yl)methyl)phenyl)acetonitrile]	500 to 5000 nM	B (3≥B>2)	500 to 5000 nM	> 1.5
O=C1c2ccccc2C(Cc2cnccc2Cl)N1Cc1ccc2[nH]c(=O)oc2c1 (centres unmarked) [Compound 175, 6-((1-((4-chloropyridin-3-yl)methyl)-3-oxoisoindolin-2-yl)methyl)benzo[d]oxazol-2(3H)-one]	< 500 nM	B (3≥B>2)	< 500 nM	> 1.5
Cc1cccnc1CC1c2ccccc2C(=O)N1Cc1ccc2[nH]c(=O)oc2c1 (centres unmarked) [Compound 176, 6-((1-((3-methylpyridin-2-yl)methyl)-3-oxoisoindolin-2-yl)methyl)benzo[d]oxazol-2(3H)-one]	< 500 nM	A (A>3)	500 to 5000 nM	> 1.5
Cc1cccnc1C[C@H]1c2ccccc2C(=O)N1Cc1ccc2[nH]c(=O)oc2c1 [Compound 178, (S)-6-((1-((3-methylpyridin-2-yl)methyl)-3-oxoisoindolin-2-yl)methyl)benzo[d]oxazol-2(3H)-one]	< 500 nM	A (A>3)	< 500 nM	> 1.5
CCc1cccnc1CC1c2ccccc2C(=O)N1Cc1ccc2[nH]c(=O)oc2c1 (centres unmarked) [Compound 182, 6-((1-((3-ethylpyridin-2-yl)methyl)-3-oxoisoindolin-2-yl)methyl)benzo[d]oxazol-2(3H)-one]	500 to 5000 nM	A (A>3)	500 to 5000 nM	> 1.5
N#Cc1cccc(Cl)c1CC1c2ccccc2C(=O)N1Cc1ccc2[nH]c(=O)oc2c1 (centres unmarked) [Compound 190, 3-chloro-2-((3-oxo-2-((2-oxo-2,3-dihydrobenzo[d]oxazol-6-yl)methyl)isoindolin-1-yl)methyl)benzonitrile]	< 500 nM	B (3≥B>2)	< 500 nM	> 1.5
O=C1c2ccccc2C(Cc2ncccc2C(F)F)N1Cc1ccc2[nH]c(=O)oc2c1 (centres unmarked) [Compound 191, 6-((1-((3-(difluoromethyl)pyridin-2-yl)methyl)-3-oxoisoindolin-2-yl)methyl)benzo[d]oxazol-2(3H)-one]	500 to 5000 nM	A (A>3)	500 to 5000 nM	> 1.5
N#Cc1ccc(CC2c3ccccc3C(=O)N2Cc2ccc3[nH]c(=O)oc3c2)c(F)c1 (centres unmarked) [Compound 199, 3-fluoro-4-((3-oxo-2-((2-oxo-2,3-dihydrobenzo[d]oxazol-6-yl)methyl)isoindolin-1-yl)methyl)benzonitrile]	< 500 nM	A (A>3)	< 500 nM	> 1.5
N#Cc1cccc(Br)c1CC1c2ccccc2C(=O)N1Cc1ccc2[nH]c(=O)oc2c1 (centres unmarked) [Compound 200, 3-bromo-2-((3-oxo-2-((2-oxo-2,3-dihydrobenzo[d]oxazol-6-yl)methyl)isoindolin-1-yl)methyl)benzonitrile]	< 500 nM	B (3≥B>2)	< 500 nM	> 1.5
N#Cc1ncccc1CC1c2ccccc2C(=O)N1Cc1ccc2[nH]c(=O)oc2c1 (centres unmarked) [Compound 201, 3-((3-oxo-2-((2-oxo-2,3-dihydrobenzo[d]oxazol-6-yl)methyl)isoindolin-1-yl)methyl) picolinonitrile]	500 to 5000 nM	A (A>3)	< 500 nM	> 1.5
N#Cc1ccc(F)c(CC2c3ccccc3C(=O)N2Cc2ccc3[nH]c(=O)oc3c2)c1 (centres unmarked) [Compound 202, 4-fluoro-3-((3-oxo-2-((2-oxo-2,3-dihydrobenzo[d]oxazol-6-yl)methyl)isoindolin-1-yl)methyl)benzonitrile]	500 to 5000 nM	A (A>3)	< 500 nM	> 1.5
O=C1c2ccccc2C(Cc2ncccc2Br)N1Cc1ccc2[nH]c(=O)oc2c1 (centres unmarked) [Compound 205, 6-((1-((3-bromopyridin-2-yl)methyl)-3-oxoisoindolin-2-yl)methyl)benzo[d]oxazol-2(3H)-one]	< 500 nM	A (A>3)	< 500 nM	> 1.5
O=C1c2ccc(C3CC3)cc2C(Cc2ncccc2Br)N1Cc1ccc2[nH]c(=O)oc2c1 (centres unmarked) [Compound 209, 6-((3-((3-bromopyridin-2-yl)methyl)-5-cyclopropyl-1-oxoisoindolin-2-yl)methyl)benzo[d]oxazol-2(3H)-one]	< 500 nM	A (A>3)	< 500 nM	> 1.5
O=C1c2ccccc2C(Cc2ccccc2OC(F)F)N1Cc1ccc2[nH]c(=O)oc2c1 (centres unmarked) [Compound 210, 6-((1-(2-(difluoromethoxy)benzyl)-3-oxoisoindolin-2-yl)methyl)benzo[d]oxazol-2(3H)-one]	500 to 5000 nM	A (A>3)	500 to 5000 nM	> 1.5
O=C1c2ccccc2C(Cc2nccc(F)c2Br)N1Cc1ccc2[nH]c(=O)oc2c1 (centres unmarked) [Compound 211, 6-((1-((3-bromo-4-fluoropyridin-2-yl)methyl)-3-oxoisoindolin-2-yl)methyl)benzo[d]oxazol-2(3H)-one]	< 500 nM	A (A>3)	< 500 nM	> 1.5
N#Cc1nccc(Cl)c1CC1c2ccccc2C(=O)N1Cc1ccc2[nH]c(=O)oc2c1 (centres unmarked) [Compound 212, 4-chloro-3-((3-oxo-2-((2-oxo-2,3-dihydrobenzo[d]oxazol-6-yl)methyl)isoindolin-1-yl)methyl)picolinonitrile]	< 500 nM	A (A>3)	< 500 nM	> 1.5
O=C1c2ccccc2C(Cc2ncccc2F)N1Cc1ccc2[nH]c(=O)oc2c1 (centres unmarked) [Compound 214, 6-((1-((3-fluoropyridin-2-yl)methyl)-3-oxoisoindolin-2-yl)methyl)benzo[d]oxazol-2(3H)-one]	500 to 5000 nM	A (A>3)	< 500 nM	> 1.5

Further lines, with some results ahead:

EC50 [1]	Enzymatic Emax [1]	EC50 [2]	SMILES	maximal fold induction [2]
< 500 nM	B (3≥B>2)	< 500 nM	N#Cc1ccccc1CC1c2ccccc2C(=O)N1Cc1ccc(O)cc1 (centres unmarked) [Compound 169, 2-((2-(4-hydroxybenzyl)-3-oxoisoindolin-1-yl)methyl)benzonitrile]	> 1.5
< 500 nM	A (A>3)	< 500 nM	N#Cc1cccc(F)c1CC1c2ccccc2C(=O)N1Cc1ccc2[nH]c(=O)oc2c1 (centres unmarked) [Compound 170, 3-fluoro-2-((3-oxo-2-((2-oxo-2,3-dihydrobenzo[d]oxazol-6-yl)methyl)isoindolin-1-yl)methyl)benzonitrile]	> 1.5
< 500 nM	B (3≥B>2)	< 500 nM	N#Cc1cccc(F)c1C[C@H]1c2ccccc2C(=O)N1Cc1ccc2[nH]c(=O)oc2c1 [Compound 172, (S)-3-fluoro-2-((3-oxo-2-((2-oxo-2,3-dihydrobenzo[d]oxazol-6-yl)methyl)isoindolin-1-yl)methyl)benzonitrile]	> 1.5
< 500 nM	B (3≥B>2)	500 to 5000 nM	Cc1c(C#N)cccc1CC1c2ccccc2C(=O)N1Cc1ccc2[nH]c(=O)oc2c1 (centres unmarked) [Compound 174, 2-methyl-3-((3-oxo-2-((2-oxo-2,3-dihydrobenzo[d]oxazol-6-yl)methyl)isoindolin-1-yl)methyl)benzonitrile]	> 1.5
500 to 5000 nM	B (3≥B>2)	500 to 5000 nM	N#Cc1ccccc1CC1c2ccccc2C(=O)N1Cc1ccc2[nH]nnc2c1 (centres unmarked) [Compound 189, 2-((2-((1H-benzo[d][1,2,3]triazol-5-yl)methyl)-3-oxoisoindolin-1-yl)methyl)benzonitrile]	> 1.5
< 500 nM	B (3≥B>2)	< 500 nM	N#Cc1ccccc1CC1c2ccccc2C(=O)N1Cc1ccc(O)c(F)c1 (centres unmarked) [Compound 195, 2-((2-(3-fluoro-4-hydroxybenzyl)-3-oxoisoindolin-1-yl)methyl)benzonitrile]	1.2 to 1.5
500 to 5000 nM	B (3≥B>2)	500 to 5000 nM	N#Cc1ccccc1CC1c2ccccc2C(=O)N1Cc1cc(F)c(O)c(F)c1 (centres unmarked) [Compound 197, 2-((2-(3,5-difluoro-4-hydroxybenzyl)-3-oxoisoindolin-1-yl)methyl)benzonitrile]	> 1.5
500 to 5000 nM	A (A>3)	< 500 nM	N#Cc1ccncc1CC1c2ccccc2C(=O)N1Cc1ccc2[nH]c(=O)oc2c1 (centres unmarked) [Compound 203, 3-((3-oxo-2-((2-oxo-2,3-dihydrobenzo[d]oxazol-6-yl)methyl)isoindolin-1-yl)methyl) isonicotinonitrile]	> 1.5
